{"source": "patent US20200399148A1", "about": "“METHOD AND APPARATUS FOR ELECTROCHEMICAL pH CONTROL” (BAR-ILAN UNIVERSITY, priority 2018, published 2020)", "origin": "cited, not measured here", "test_system": "bacteria", "details": "relative to hypochlorous acid"}
{"smiles": "OCl", "note": "[OCl^−, hypochlorite anion]", "values": [{"measurement": "bactericidal activity, times less than hypochlorous acid", "result": "80-120 time less"}]}
